Laboratory results: patent US12648928B2, “Intervention strategy for prevention or treatment of diabetes mellitus, autoimmune disease, inflammatory disease or cardiovascular disease” (ACADEMISCH MEDISCH CENTRUM, priority 2020, dated 2026)
“Also recorded” adds a separate entry of the source.

Tests used:
murine CD4+ T cells = assay: In vitro CD4+ T cell activation assay (anti-CD3/anti-CD28); format: cell-based
Protocol: Primary CD4+ T cells were freshly isolated by negative selection from spleens of C57/B16 mice (N=3 per experiment). Briefly, spleens were smashed in a culture dish and passed twice through a strainer (70 μm and 40 μm, respectively) to obtain a single-cell suspension.
Using the negative selection (CD4+ T Cell Isolation kit, Miltenyi Biotec, #130-10-454). Non-CD4 T cells were depleted by retaining them in LS magnetizing column (Miltenyi Biotec).
Isolated CD4 T cells were cultured in 96-well plates (1×10^5 per well) in RPMI1640 medium supplemented with 10% fetal bovine serum, 100 U/ml penicillin, 100 μg/ml streptomycin, 2 mM L-glutamine. Treatment with the metabolites 6-BT (1/10 μM), LysoPC(20:0) (10/50 μM) or MA-GPC (10/50/100 μM) and activation with 2.5 μg/ml soluble anti-CD3 (145-2C11, eBioscience) and 1 μg/ml soluble anti-CD28 (37.51, eBioscience) antibodies started immediately after seeding in 200 i/well complete RPMI1640 media for a 24-hour period, at the end of which supernatant was harvested and stored at −80° C.
Specific ELISAs (R&D Systems) were utilized to measure the concentration of TNFα, IFNβ, and IFNγ in cell supernatant of murine monocytes, macrophages ad T cells, respectively, according to the manufacturer's instructions. The concentration of insulin after 24-hour treatment with metabolites or after GSIS were determined using Rat insulin ELISA (Mercodia) according to the manufacturer's instructions. GSIS was calculated by subtracting the concentration of insulin at 1 mM glucose to the insulin rate at 22 mM glucose.
Particularly in the context of autoimmune diabetes, the activity of T cells is driving disease onset and progression. […] To mimic antigen presentation, murine CD4 T cells (isolated from spleens; Uchimura T., The Innate Immune Sensor NLRC3 Acts as a Rheostat that Fine-Tunes T Cell Responses in Infection and Autoimmunity. Immunity 2019) were activated by monoclonal antibodies against CD3 and CD28 (2.5 and 1 μg/ml, respectively).

NF-kB pathway [1] = assay: Phosphorylated p65 subunit after PMA/ionomycin activation, murine CD4 T cells; format: cell-based; conditions: PMA 50 μg/ml and ionomycin 1 μg/ml, 5-10 minutes after activation (FIG. 18)
Protocol: (§1) Seeking for the molecular mechanism(s) underlying 6-BT actions, 6-BT impact on the activation of the NF-kB pathway, a central pathway in all inflammatory diseases (beyond autoimmunity) was checked first. […] Upon T cell activation with PMA ([…]) and ionomycin (1 μg/ml), 6-BT could inhibit, at very early time-points (5-10 minutes after activation), the NF-kB signaling. This effect was found in both murine and human (Jurkat cells) CD4 T cells.

NF-kB pathway [2] = assay: Phosphorylated p65 subunit after PMA/ionomycin activation, Jurkat cells; format: cell-based; conditions: human Jurkat cells; PMA 50 μg/ml and ionomycin 1 μg/ml; 5-10 minutes after activation (FIG. 18)
Protocol: as §1

[3] = test system: human (Jurkat) CD4 T cells; assay: Seahorse XF mitochondrial metabolism (OCR), Jurkat CD4 T cells; format: cell-based; conditions: 100 uM; human (Jurkat) CD4 T cells (FIG. 22)
Protocol: Finally, it was uncovered that 6-BT also impacts the intracellular metabolism.
OCR=oxygen consumption rate, used as a proxy of cellular utilization of mitochondrial oxidative phosphorylation. OCR was measured using a Seahorse XF Analyzer Uchimura T., The Innate Immune Sensor NLRC3 Acts as a Rheostat that Fine-Tunes T Cell Responses in Infection and Autoimmunity. Immunity 2019; Chou, AIM2 in regulatory T cells restrains autoimmune diseases, Nature 2021.

[4] = test system: pro-inflammatory M1 macrophages; assay: Seahorse XF intracellular metabolism, M1 macrophages; format: cell-based; conditions: M1 macrophages differentiated in presence of LPS and IFNgamma (FIG. 23)
Text: Intracellular metabolism measured using a Seahorse XF Analyzer, Uchimura T., The Innate Immune Sensor NLRC3 Acts as a Rheostat that Fine-Tunes T Cell Responses in Infection and Autoimmunity. Immunity 2019; Chou, AIM2 in regulatory T cells restrains autoimmune diseases, nature 2021.

AhR = molecular target: T1, AhR (Homo sapiens, UniProt P35869); assay: AhR activation
T1 sequence (P35869 11-848): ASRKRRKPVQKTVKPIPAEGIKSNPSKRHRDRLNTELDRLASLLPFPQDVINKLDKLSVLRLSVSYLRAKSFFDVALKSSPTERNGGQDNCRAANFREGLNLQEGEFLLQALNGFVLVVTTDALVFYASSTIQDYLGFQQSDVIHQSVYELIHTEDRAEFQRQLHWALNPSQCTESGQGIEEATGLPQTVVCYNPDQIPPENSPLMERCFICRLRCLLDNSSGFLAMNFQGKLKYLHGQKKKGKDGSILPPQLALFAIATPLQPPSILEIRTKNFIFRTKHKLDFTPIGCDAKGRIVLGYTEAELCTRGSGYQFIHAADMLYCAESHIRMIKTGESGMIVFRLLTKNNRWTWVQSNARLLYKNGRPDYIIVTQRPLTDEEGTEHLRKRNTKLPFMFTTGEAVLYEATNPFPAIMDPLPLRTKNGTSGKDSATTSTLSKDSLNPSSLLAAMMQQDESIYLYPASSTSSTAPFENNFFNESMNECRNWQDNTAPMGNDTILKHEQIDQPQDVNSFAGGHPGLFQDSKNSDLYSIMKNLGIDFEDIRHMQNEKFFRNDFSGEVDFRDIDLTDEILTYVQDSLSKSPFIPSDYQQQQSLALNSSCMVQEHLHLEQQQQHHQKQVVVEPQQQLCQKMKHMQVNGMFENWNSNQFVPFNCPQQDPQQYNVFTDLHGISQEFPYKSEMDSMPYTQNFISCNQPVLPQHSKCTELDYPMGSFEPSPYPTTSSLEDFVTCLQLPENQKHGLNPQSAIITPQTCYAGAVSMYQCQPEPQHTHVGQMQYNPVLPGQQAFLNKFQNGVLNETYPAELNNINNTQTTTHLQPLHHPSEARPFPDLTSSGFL

SMILES: N[C@@H](Cc1c[nH]c2cc(Br)ccc12)C(=O)O [6-BT, 6-bromotryptophan]
- production of the Th1 cytokine IFNgamma (murine CD4+ T cells; CD4 T cells from spleens, anti-CD3 2.5 μg/ml and anti-CD28 1 μg/ml (FIGS. 16, 20)): significantly reduced; also recorded: exerted inhibitory effect
- Th1 responses in CD4 T cells (murine CD4+ T cells; anti-CD3 & anti-CD28 mAbs, 24 hours (FIG. 11)): dampen Th1 responses
- NF-kB signaling (phosphorylated p65 subunit) (NF-kB pathway [1]): could inhibit
- NF-kB signaling (phosphorylated p65 subunit) (NF-kB pathway [2]): could inhibit
- mitochondrial metabolism (OCR) [3]: promotes the mitochondrial metabolism
- glycolytic flux [4]: without affecting the glycolytic flux
- mitochondrial metabolism [4]: could enhance the mitochondrial metabolism
- activation of AhR (AhR): does not act through activation of AhR
